Experiment [1] has as its system HMPV clinical isolate TN/1501/A1. The experiment is described as follows: HMPV antiviral assay Method-B (clinical isolate TN/1501/A1 in LLC-MK2 cells, ATP-Lite readout). Format: cell-based, Human metapneumovirus (HMPV). The note with it: human metapneumovirus, LLC-MK2, 144 h, hMPV WT1501 (clinical isolate TN/1501/A1), 6 days. In a few lines: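 EC50 derived by four-parameter logistic fit of percent cell health, measured by ATP-Lite luminescence and normalised to virus-only and uninfected-cell controls. Compounds run in duplicate from 10 μM top, 3-fold, 10 points. Infection: LLC-MK2 cells, MOI 0.014, 2 μg/mL final TPCK-trypsin, serum-free, 6 days at 37° C.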

Experiment [2] has as its system genotype A, "Long" strain RSV. Kind of experiment: RSV-A assay (CPE protection in Hep-2 cells, ATPlite readout). Type of experiment: cell-based, Human respiratory syncytial virus (HRSV). The note with it: human respiratory syncytial virus, RSV-A Long strain, MOI 0.1, CPE protection, read-out: Human RSV-A (“Long”) EC50. An outline of the steps:
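In this cytopathic-effect protection format, infected Hep-2 cultures (MOI 0.1) are exposed to compound for 5 days. Surviving cell ATP is quantified with ATPlite, and EC50 is determined.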

Each structure is given as a SMILES string.

`COc1cc(C(=O)NC[C@](O)(c2cc3c(c(-c4cccc(Br)c4F)n2)OC[C@]3(C)C(N)=O)C2CC2)cc2cc(Cl)c(C)nc12` [Example 1092]: the EC50 (commonly the midpoint of the concentration-response curve) is below 500 nM in experiment [1] and below 200 nM in experiment [2].

In the case of `Cc1cnc2c(Cl)cc(C(=O)NC[C@](O)(c3cc4c(c(-c5cc(Br)c(F)cc5F)n3)OC[C@]4(C)C(N)=O)C3CC3)cc2c1` [Example 1093], the figures for the EC50 in experiment [1] and in experiment [2] were below 500 nM and below 200 nM, respectively.

In the case of `COc1cc(C(=O)NC[C@](O)(c2cc3c(c(-c4cc(Br)c(F)cc4F)n2)OC[C@]3(C)C(N)=O)C2CC2)cc2cc(Cl)c(C)nc12` [Example 1094], the EC50 is below 500 nM in experiment [1] and below 200 nM in experiment [2].

As to `C[C@]1(C(N)=O)COc2c1cc([C@@](O)(CNC(=O)c1ccc3nn(C4CC4)cc3c1)C1CC1)nc2-c1cc(Br)c(F)cc1F` [Example 1095], the EC50 in experiment [1] is below 500 nM; in experiment [2] it was below 200 nM.

In the case of `C[C@]1(C(N)=O)COc2c1cc([C@@](O)(CNC(=O)c1cc(Cl)c3nn(C4CC4)cc3c1)C1CC1)nc2-c1cc(Br)c(F)cc1F` [Example 1096], the EC50 was below 500 nM in experiment [1] and below 200 nM in experiment [2].

For `COc1cc(C(=O)NC[C@](O)(c2cc3c(c(-c4cc(Br)c(F)cc4F)n2)OC[C@]3(C)C(N)=O)C2CC2)cc2cn(C(F)F)nc12` [Example 1097], the values for the EC50 in experiment [1] and in experiment [2] were below 500 nM and below 200 nM, respectively.

As to `COc1cc(C(=O)NC[C@](O)(c2cc3c(c(-c4cccc(Br)c4F)n2)OC[C@]3(C)C(N)=O)C2CC2)cc2cn(C(F)F)nc12` [Example 1098], the EC50 in experiment [1] was below 500 nM; in experiment [2], below 200 nM.

As to `C[C@]1(C(N)=O)COc2c1cc([C@@](O)(CNC(=O)c1cc(Cl)c3nn(C4CC4)cc3c1)C1CC1)nc2-c1cccc(Br)c1F` [Example 1099], the figures for the EC50 in experiment [1] and in experiment [2] were below 500 nM and below 200 nM, respectively.

For `C[C@]1(C(N)=O)COc2c1cc([C@@](O)(CNC(=O)c1ccc3nn(C4CC4)cc3c1)C1CC1)nc2-c1cccc(Br)c1F` [Example 1100], the EC50 in experiment [1] is below 500 nM; in experiment [2] it was below 200 nM.

Consider `C[C@]1(C(N)=O)COc2c1cc([C@@](O)(CNC(=O)c1ccc3nn(C4CC4)cc3c1)C1CC1)nc2-c1ccc(F)c(Br)c1F` [Example 1101], for which the EC50 is below 500 nM in experiment [1] and below 200 nM in experiment [2].

`Cc1cnc2c(Cl)cc(C(=O)NC[C@](O)(c3cc4c(c(-c5ccc(F)c(C(F)(F)F)c5)n3)OC[C@]4(C)C(N)=O)C3CC3)cc2c1` [Example 1102]: the EC50 is below 500 nM in experiment [1] and below 200 nM in experiment [2].

With `COc1cc(C(=O)NC[C@](O)(c2cc3c(c(-c4ccc(F)c(C(F)(F)F)c4)n2)OC[C@]3(C)C(N)=O)C2CC2)cc2cc(Cl)c(C)nc12` [Example 1103], the figures for the EC50 in experiment [1] and in experiment [2] were below 500 nM and below 200 nM, respectively.

For the compound `COc1cc(C(=O)NC[C@](O)(c2cc3c(c(-c4ccc(F)cc4)n2)OC[C@]3(C)C(N)=O)C(F)(F)F)cc2cc(Cl)c(Cl)nc12` [Example 1104], the concentration giving a half-maximal response (EC50) in experiment [1] is above 500 nM; in experiment [2] it was above 200 nM.

`COc1cc(C(=O)NC[C@](O)(c2cc3c(c(-c4ccc(F)cc4)n2)OC[C@]3(C)C(N)=O)C2CC2)cc2cc(Cl)c(Cl)nc12` [Example 1105]: the figures for the EC50 in experiment [1] and in experiment [2] were above 500 nM and below 200 nM, respectively.

For the compound `Cc1cnc2c(OC(F)F)cc(C(=O)NC[C@](O)(c3cc4c(c(-c5cc(Br)c(F)cc5F)n3)OC[C@]4(C)C(N)=O)C3CC3)cc2c1` [Example 1106], the concentration for a half-maximal effect (EC50) is below 500 nM in experiment [1] and below 200 nM in experiment [2].

With `C[C@]1(C(N)=O)COc2c1cc([C@@](O)(CNC(=O)c1cc(Cl)c3nn(C4CC4)cc3c1)C(F)(F)F)nc2-c1cccc(F)c1Cl` [Example 1119], the EC50 in experiment [1] was below 500 nM; in experiment [2], below 200 nM.

On to `COc1cc(C(=O)NC[C@](O)(c2cc3c(c(-c4cccc(F)c4Cl)n2)OC[C@]3(C)C(N)=O)C(F)(F)F)cc2cn(C(F)F)nc12` [Example 1120], for which the half-maximal effective concentration (EC50) in experiment [1] is below 500 nM; in experiment [2] it was below 200 nM.

Source of the values: patent US12612412B2, “Antiviral heterocyclic compounds” (Enanta Pharmaceuticals, Inc., priority 2021, dated 2026).
